The numbers were not newly measured in paper PMC4303307 (Biochemistry, 2014), which cites them from elsewhere.

Where no end group is shown, it is not given here.

In the data set the test system is γ-crystallin. The following applies: cited from earlier work.

For “MAC peptide with an acetylated Lys 70: the MAC peptide with an acetylated Lys 70 used by Nahomi et al. (K(Ac)FVIFLDVKHFSPEDLTVK; UniProt P02489 70-88, looked up, fragment)”, the “chaperone activity of acetylated Lys vs Asp at the N-terminal end” value is given as “enhanced chaperone activity”. Moreover, the “increase of chaperone activity over nonacetylated peptide” value (in vitro, γ-crystallin substrate) is recorded as about 15%.
